The source made the active and inactive calls. The calls are words filed in the database; no cut-off is given here.
Assays:
Mus musculus [1] = assay: Anticonvulsant activity in albino CD1 mouse assessed as protection against maximal electroshock-induced seizures at 300 mg/kg, ip measured after 4 hrs; type: functional, organism-based
Mus musculus [2] = assay: Neurotoxicity in albino CD1 mouse assessed as motor impairment at 300 mg/kg, ip measured after 0.5 hrs by rotarod test; type: toxicity, organism-based; details: in vivo
Mus musculus [3] = assay: Anticonvulsant activity in albino CD1 mouse assessed as protection against maximal electroshock-induced seizures at 300 mg/kg, ip measured after 0.5 hrs; type: functional, organism-based
Mus musculus [4] = assay: Anticonvulsant activity in ip dosed albino CD1 mouse assessed as minimum dose required to protect subcutaneous pentylenetetrazole-induced seizures in half and more mouse measured after 0.5 hrs; type: functional
Mus musculus [5] = assay: Anticonvulsant activity in ip dosed albino CD1 mouse assessed as minimum dose required to protect subcutaneous pentylenetetrazole-induced seizures in half and more mouse measured after 4 hrs; type: functional
Mus musculus [6] = assay: Neurotoxicity in albino CD1 mouse assessed as motor impairment at 300 mg/kg, ip measured after 4 hrs by rotarod test; type: toxicity, organism-based; details: in vivo
Mus musculus [7] = assay: Anticonvulsant activity in albino CD1 mouse assessed as protection against subcutaneous pentylenetetrazole-induced seizures at 300 mg/kg, ip measured after 4 hrs; type: functional, organism-based
Mus musculus [8] = assay: Anticonvulsant activity in albino CD1 mouse assessed as protection against subcutaneous pentylenetetrazole-induced seizures at 300 mg/kg, ip measured after 0.5 hrs; type: functional, organism-based
Mus musculus [9] = assay: Protection index, ratio of TD50 for motor impairment in ip dosed albino CD1 mouse to ED50 for protection against subcutaneous pentylenetetrazole-induced seizures in ip dosed albino CD1 mouse
Mus musculus [10] = assay: Anticonvulsant activity in ip dosed albino CD1 mouse assessed as protection against subcutaneous pentylenetetrazole-induced seizures; type: functional
[11] = Neurotoxicity in ip dosed albino CD1 mouse assessed as motor impairment by rotarod test; type: toxicity, organism-based; details: in vivo
Mus musculus [12] = assay: Protection index, ratio of TD50 for motor impairment in ip dosed albino CD1 mouse to ED50 for protection against 32 mA current-induced seizure in ip dosed albino CD1 mouse by 6 Hz psychomotor test
Mus musculus [13] = assay: Anticonvulsant activity in ip dosed albino CD1 mouse assessed as protection against 32 mA current-induced seizure by 6 Hz psychomotor test; type: functional
Mus musculus [14] = assay: Neurotoxicity in ip dosed albino CD1 mouse assessed as minimum dose required to induce motor impairment in half and more mouse measured after 0.5 hrs by rotarod test; type: toxicity, organism-based; details: in vivo
Mus musculus [15] = assay: Anticonvulsant activity in ip dosed albino CD1 mouse assessed as minimum dose required to protect maximal electroshock-induced seizures in half and more mouse measured after 0.5 hrs; type: functional
Mus musculus [16] = assay: Anticonvulsant activity in albino CD1 mouse assessed as protection against 32 mA current-induced seizure at 100 mg/kg, ip after 0.5 hrs by 6 Hz psychomotor test; type: functional
Mus musculus [17] = assay: Anticonvulsant activity in albino CD1 mouse assessed as protection against 32 mA current-induced seizure at 100 mg/kg, ip after 4 hrs by 6 Hz psychomotor test; type: functional, organism-based
Mus musculus [18] = assay: Anticonvulsant in ip dosed CD1 mouse assessed as time to peak effect; type: functional
Mus musculus [19] = assay: Anticonvulsant activity in ip dosed albino CD1 mouse assessed as minimum dose required to protect maximal electroshock-induced seizures in half and more mouse measured after 4 hrs; type: functional
Mus musculus [20] = assay: Anticonvulsant activity in albino CD1 mouse assessed as protection against 32 mA current-induced seizure incidents at 100 mg/kg, ip after 0.5 hrs by 6 Hz psychomotor test; type: functional

| Structure (SMILES) | Activity (Mus musculus [1]) | Activity (Mus musculus [2]) | Activity (Mus musculus [3]) | Activity (Mus musculus [4]) [mg/kg] | Activity (Mus musculus [5]) [mg/kg] | Activity (Mus musculus [6]) | Activity (Mus musculus [7]) | Activity (Mus musculus [8]) | Ratio TD50/ED50 (Mus musculus [9]) | ED50 (Mus musculus [10]) [mg/kg] | TD50 [11] [mg/kg] | Ratio TD50/ED50 (Mus musculus [12]) | ED50 (Mus musculus [13]) [mg/kg] | Activity (Mus musculus [14]) [mg/kg] | Activity (Mus musculus [15]) [mg/kg] | Activity (Mus musculus [16]) | Activity (Mus musculus [17]) | Time (Mus musculus [18]) [h] | Activity (Mus musculus [19]) [mg/kg] | Activity (Mus musculus [20]) [%] |
| --- | --- | --- | --- | --- | --- | --- | --- | --- | --- | --- | --- | --- | --- | --- | --- | --- | --- | --- | --- | --- |
| O=C1CC(C(c2ccccc2)c2ccccc2)C(=O)N1CN1CCN(C2CCCCC2)CC1 (stereo not drawn) | inactive | Non-Toxic | inactive | 300 | 300 | Non-Toxic |  |  |  |  |  |  |  |  |  |  |  |  |  |  |
| CC(C)C1CC(=O)N(CN2CCN(c3ncccn3)CC2)C1=O (stereo not drawn) | inactive | Non-Toxic | inactive |  |  | Non-Toxic | inactive | inactive |  |  |  |  |  |  |  |  |  |  |  |  |
| CC1CC(=O)N(CN2CCN(c3ncccn3)CC2)C1=O (stereo not drawn) | inactive | Non-Toxic | inactive |  |  | Non-Toxic | inactive | inactive |  |  |  |  |  |  |  |  |  |  |  |  |
| CC(C)C1CC(=O)N(CN2CCN(Cc3ccccc3)CC2)C1=O (stereo not drawn) | inactive | Non-Toxic | inactive |  |  | Non-Toxic | inactive | inactive |  |  |  |  |  |  |  |  |  |  |  |  |
| O=C1CCC(=O)N1CN1CCC(Cc2ccccc2)CC1 | inactive | Non-Toxic | inactive |  |  | Non-Toxic | inactive | inactive |  |  |  |  |  |  |  |  |  |  |  |  |
| O=C1CCC(=O)N1CN1CCOCC1 | inactive | Non-Toxic | inactive |  |  | Non-Toxic | inactive | inactive |  |  |  |  |  |  |  |  |  |  |  |  |
| CC1CC(=O)N(CN2CCOCC2)C1=O (stereo not drawn) | inactive | Non-Toxic | inactive |  |  | Non-Toxic | inactive | inactive |  |  |  |  |  |  |  |  |  |  |  |  |
| CN1CCN(CN2C(=O)CC(C(c3ccccc3)c3ccccc3)C2=O)CC1 (stereo not drawn) |  |  |  | 100 |  | Non-Toxic | inactive |  | 3.26 | 75.6 | 247 | 6.28 | 39.2 | 300 | 300 | 100% | Active | 0.5 | 300 |  |
| CC(C)C1CC(=O)N(CN2CCOCC2)C1=O (stereo not drawn) | inactive | Non-Toxic | inactive |  | 300 | Non-Toxic |  | inactive |  |  |  |  |  |  |  | inactive | inactive |  |  |  |
| CC1CC(=O)N(CN2CCN(Cc3ccccc3)CC2)C1=O (stereo not drawn) | inactive | Non-Toxic | inactive |  |  | Non-Toxic | inactive | inactive |  |  |  |  |  |  |  |  |  |  |  |  |
| O=C1CCC(=O)N1CN1CCN(Cc2ccccc2)CC1 | inactive | Non-Toxic | inactive |  |  | Non-Toxic | inactive | inactive |  |  |  |  |  |  |  |  |  |  |  |  |
| O=C1CC(C(c2ccccc2)c2ccccc2)C(=O)N1CN1CCN(CCO)CC1 (stereo not drawn) |  |  |  | 100 | 100 | Non-Toxic |  |  | 2.67 | 83.1 | 222 | 4.29 | 51.7 | 300 | 300 |  |  | 0.5 | 300 | 66 |
| CC1CC(=O)N(CN2CCN(C)CC2)C1=O (stereo not drawn) | inactive | Non-Toxic | inactive |  |  | Non-Toxic | inactive | inactive |  |  |  |  |  |  |  |  |  |  |  |  |
| O=C1CC(C(c2ccccc2)c2ccccc2)C(=O)N1CN1CCN(Cc2ccccc2)CC1 (stereo not drawn) | inactive | Non-Toxic | inactive | 100 | 300 | Non-Toxic |  |  |  |  |  |  |  |  |  |  |  |  |  |  |
| O=C1CC(C(c2ccccc2)c2ccccc2)C(=O)N1CN1CCC(Cc2ccccc2)CC1 (stereo not drawn) | inactive | Non-Toxic | inactive |  |  | Non-Toxic | inactive | inactive |  |  |  |  |  |  |  |  |  |  |  |  |
| O=C1CC(C(c2ccccc2)c2ccccc2)C(=O)N1CN1CCN(c2ncccn2)CC1 (stereo not drawn) | inactive | Non-Toxic | inactive | 300 |  | Non-Toxic | inactive |  |  |  |  |  |  |  |  |  |  |  |  |  |

Reference: ChEMBL document CHEMBL3997820, “Synthesis and evaluation of anticonvulsant properties of new N-Mannich bases derived from pyrrolidine-2,5-dione and its 3-methyl-, 3-isopropyl, and 3-benzhydryl analogs” (Bioorg Med Chem Lett, 2017)
